Patent publication US6632921B1, “Seryl-lysyl-based peptide and peptidomimetic inhibitors of N-myristoyl transferase as anti-infective agents” (G. D Searle & Co, priority 1995, dated 2003)
Each block holds one compound with its values, some of them ahead of it.

What was measured:
Candida albicans NMT = target: T1, Candida albicans NMT (Candida albicans, UniProt P30418); assay: NMT enzyme inhibition assay (radiochemical HPLC end-point), Candida NMT; type: biochemical
T1 construct: made in house; host or cells: E. coli
T1 sequence (P30418 1-451): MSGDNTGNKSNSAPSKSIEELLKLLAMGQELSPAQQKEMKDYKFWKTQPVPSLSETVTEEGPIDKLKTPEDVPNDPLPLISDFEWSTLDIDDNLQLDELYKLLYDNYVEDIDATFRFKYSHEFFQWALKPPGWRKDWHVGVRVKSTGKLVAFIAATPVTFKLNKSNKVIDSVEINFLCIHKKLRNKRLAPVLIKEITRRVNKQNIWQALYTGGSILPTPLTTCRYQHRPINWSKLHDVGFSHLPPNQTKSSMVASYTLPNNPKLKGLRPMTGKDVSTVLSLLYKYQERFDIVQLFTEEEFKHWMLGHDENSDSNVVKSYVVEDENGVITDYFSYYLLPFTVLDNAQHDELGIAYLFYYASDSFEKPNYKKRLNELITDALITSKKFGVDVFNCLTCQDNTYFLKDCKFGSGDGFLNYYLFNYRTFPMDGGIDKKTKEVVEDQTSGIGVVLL
Protocol: (§1) Recombinant Candida albicans and human NMTs were expressed and purified from E. coli using previously described protocols. [D. A. Towler et al, Proc. Natl. Acad. Sci. USA, 84, 2707-2712 (1987); R. C. Weigand et al, J. Biol. Chem., 267, 8591-8598 (1992); R. J. Duronio et al, Proc. Natl. Acad. Sci. USA, 89, 4129-4133 (1992)] The ability of compounds to inhibit Candida NMT enzymatic activity was assessed using a radiochemical HPLC end-point assay as described previously for Saccharomyces cerevisiae and human NMTs. [D. Towler et al, Proc. Natl. Acad. Sci. USA, 83, 2812-2816 (1986); W. J. Rocque et al, J. Biol. Chem., 268, 9964-9971 (1991)] The donor substrate [^3H]myristoyl-coenzyme A was enzymatically synthesized from [^3H]myristic acid (50 Ci/mmol, Amersham, Arlington Heights, Ill.) and coenzyme A (Fluka Chemical Corp., Ronkonkoma, N.Y.), and purified as described previously. [W. J. Rocque et al, J. Biol. Chem., 268, 9964-9971 (1991)] The peptide acceptor substrate GNAASARR-NH2 was prepared by solid-phase peptide synthesis using the t-Boc amino acid methodology, followed by HF treatment and reverse-phase HPLC purification. Inhibitor stock solutions were prepared at 22 mM in DMSO; the final concentration of DMSO in each assay was 0.5% (v/v). Inhibition assays were carried out by combining variable amounts of inhibitor or buffer with 0.11 mmoles of [^3H]myristoyl-coenzyme A (1 μCi, 9.09 Ci/mmol) and 2.2 nmoles of GNAASARR-NH2 in a total volume of 60 μL of 0.2 M N-[2-hydroxy-ethyl]piperazine-N′-[2-ethanesulfonic acid], pH 7.4, 2 mM DL-dithiothreitol, 0.2 mM ethylene glycol-bis-(β-aminoethyl ether) N,N,N′,N′-tetraacetic acid, and initiating the reaction by the addition of 50 μL of a Candida NMT solution (7-12 ng/50 μL). Assays with human NMT were identical except that they used 60-75 ng/50 μL of enzyme solution and 0.22 nmoles of GNAASARR-NH2. The reaction was quenched after 10 minutes at 24° C. by the addition of ice-cold MeOH, and the reaction products were separated and measured using C4 reverse-phase HPLC (Vydac 214TP10415; Separations Group, Hesperia, Calif.) and in-line scintillation counting using a Radiomatic A250 (Packard Instruments, Downers Grove, Ill.) and Ecolite(+) (ICN Biomedical, Costa Mesa, Calif.) as the scintillant. Selectivity was determined by calculating the ratio of the IC50 against human NMT to the IC50 against C. albicans NMT.

human NMT = target: T2, human NMT (Homo sapiens, UniProt P30419); assay: NMT enzyme inhibition assay (radiochemical HPLC end-point), human NMT; type: biochemical; conditions: Table V
T2 construct: made in house; host or cells: E. coli
T2 sequence (P30419 1-416 isoform P30419-2): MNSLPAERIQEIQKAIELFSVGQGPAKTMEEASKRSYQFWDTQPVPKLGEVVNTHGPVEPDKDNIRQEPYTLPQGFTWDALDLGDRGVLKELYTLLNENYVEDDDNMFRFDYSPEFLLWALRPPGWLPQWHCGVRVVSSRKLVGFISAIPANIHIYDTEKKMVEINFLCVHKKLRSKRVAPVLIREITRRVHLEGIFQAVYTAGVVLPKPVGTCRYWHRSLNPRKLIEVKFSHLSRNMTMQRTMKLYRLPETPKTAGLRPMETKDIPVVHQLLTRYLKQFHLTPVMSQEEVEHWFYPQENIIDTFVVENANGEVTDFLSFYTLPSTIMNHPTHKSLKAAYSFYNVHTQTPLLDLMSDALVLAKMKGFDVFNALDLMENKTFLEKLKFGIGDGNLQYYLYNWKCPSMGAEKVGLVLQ
Protocol: as §1, with “Inhibition assays were carried out by combining variable amounts of inhibitor or buffer with 0.11 mmoles of [^3H]myristoyl-coenzyme A (1 μCi, 9.09 Ci/mmol) and 2.2 nmoles of GNAASARR-NH2 in a total volume of 60 μL of 0.2 M N-[2-hydroxy-ethyl]piperazine-N′-[2-ethanesulfonic acid], pH 7.4, 2 mM DL-dithiothreitol, 0.2 mM ethylene glycol-bis-(β-aminoethyl ether) N,N,N′,N′-tetraacetic acid, and initiating the reaction by the addition of 50 μL of a Candida NMT solution (7-12 ng/50 μL). Assays with human NMT were identical except that they used 60-75 ng/50 μL of enzyme solution and 0.22 nmoles of GNAASARR-NH2.” left out

[1] = test system: Candida albicans, strain B311; assay: Antifungal susceptibility testing, microdilution broth, pH 5.4/30° C./YNB; type: cell-based; conditions: B311, 24 hours, Table V (values agree with pH 5.4 assay), read-out: caEC50 24 hours
Protocol: Antifungal Screens were set up initially against Candida albicans, strain B311, and Cryotococcus neoformans, strain L210425. Both pathogens, (originally from the stock culture collection, Medical mycology research center, Washington university-Barnes hospital), were obtained from Dr.Kobayashi, Prof.of infectious diseases, Washington University, St.Louis, Mo.
All cultures are maintained at 30° C. on Sabouraud's dextrose agar slants and subcultured at monthly intervals to fresh medium. All inocula for susceptibility testing are prepared in yeast nitogen base(YNB, Difco) broth.
A loopful of growth from Sabouraud dextrose agar slant is inoculated into 4 ml of YNB broth media and incubated at 30° C. overnight (18-24 hrs) with constant agitation (Gyratory Shaker, New Brunswick Scientific). Prior to setting up susceptibility testing, the organisms are counted in a hemocytometer, and diluted as needed into assay media.
1) (Assay at DH 5.4/30° C. Incubation/YNB Media).
Antifungal assays were carried out initially by a modification of the method published by Jones, et. al; (1), and communicated to Searle by Dr. Kobayashi, Washington University. [R. N. Jones et al, Manual of Clinical Microbiology, 4th ed., (1985)]
The antifungal susceptibility testing consists of a microdilution broth procedure performed in 96 well microtiter plates (Costar, cat#3799). Briefly, test compounds from a 20 mM stock solution in DMSO are diluted into sterile, deionized water (final DMSO concentration not exceeding 1%), to yield 2× the desired concentration (100 uM, 10 uM and 1 uM for an initial screen, or a selected concentration range in serial 2 fold dilutions for EC50 determination). One hundred microliters (100 ul) of each concentration is dispensed into triplicate wells of a 96 well microtiter plate. Appropriate dilutions of a suspension of C.albicans (1×10^6 cells/ml) in 2× YNB is distributed into each of the wells, including growth control wells containing no test compound as well as control wells with 0.5% DMSO. Amphotericin B at 0.05, 1 and 5 ug/ml is included in each assay plate as a positive control. The plates are incubated at 30° C. and cell growth is scored by reading the absorbance at 590 nm on an Elisa plate reader(Dynatech, MR.5000).

[2] = test system: a variety of fungal species, including C. albicans; conditions: Sabouraud dextrose agar; series of n-alkoxyacetic acids; cited from earlier work
HIV-1 = conditions: acutely and chronically infected human T-lymphocyte cell lines, doses which do not cause cellular toxicity; cited from earlier work

IC50 (Candida albicans NMT; Table V, read-out: IC50 caNMT): 0.4 µM
Selectivity (Candida albicans NMT; ratio of IC50 against human NMT to IC50 against C. albicans NMT): 2200
IC50 (human NMT): 850 µM
EC50 [1]: 33 µM
SMILES: Cc1nccn1CCCCc1ccc(C(C)C(=O)N[C@@H](CO)C(=O)N[C@@H](CCCCN)C(=O)N[C@@H](CC2CCCCC2)C(=O)O)cc1 (mixture of isomers) [Example 1, L-Alanine, 3-cyclohexyl-N-[N^2-[N-[2-[4-[4-(2-methyl-1H-imidazol-1-yl)butyl]phenyl]oxopropyl]-L-seryl]-L-lysyl]-, (±), bis-trifluoroacetate]

SMILES: CCCCCCCCCCCOCC(=O)O [3-oxatetradecanoic acid]
effects on the growth of fungal species [2]: inhibiting growth

SMILES: CCCCCCCCOCC(=O)O [3-oxaundecanoic acid]
effects on the growth of fungal species [2]: broadest spectrum and highest potency

SMILES: COCCCCCCCCCCCC(=O)O [13-oxatetradecanoic acid]
inhibition of HIV-1 replication (HIV-1): inhibits HIV-1 replication
